The values below come from patent US9339523B2, “Estrogenic extracts of Asparagus conchinchinensis (Lour.) Merr of the Liliaceae family and uses thereof” (BIONOVO, INC., priority 2007, dated 2016).

In one test the test system is TNF-RE tkLuc. The test can be described thus: TNF-RE tkLuc reporter, ERα and ERβ not separated (Example 2). The test is classed as cell-based, human. The following applies: for activation of TNF-RE tkLuc: antiestrogens, in contrast to E2. The protocol:
Plasmid Construction. […] ERβ mutants were created with QuikChange site-directed mutagenesis kits (Stratagene), by using oligonucleotides containing the mutation. The mutants were sequenced with Sequenase kits (Amersham Pharmacia) to verify the presence of the mutation.
(§1) For experiments, cells were collected, transferred to a cuvette, and then electroporated with a Bio-Rad gene pulser as described previously using 3 μg of reporter plasmid and 1 μg of ERα or ERβ expression vectors. After electroporation, the cells were resuspended in media and plated at 1 ml/dish in 12-well multiplates. […] The concentration of hormone required to produce a half-maximal induction (EC50) or inhibition (IC50) of luciferase activity was calculated with the Prism curve-fitting program (Graph Pad Software, version 2.0b). […] The cells were plated in duplicate at a density of 25,000 cells/35-mm plate in tissue culture medium containing 3% stripped fetal bovine serum. […] After 8 days the cells were counted with a Coulter counter.

Test [1] addresses T1, ERβ (Homo sapiens, UniProt Q92731). The test can be described thus: TNF-RE tkLuc repression in U2OS cells with ERβ. Format: cell-based. The arrangement: expressed in transfected cells; host or cells: U2OS (A10). On the procedure:
as §1
(§2) The extracts (a and b) were than decanted and only the soluble material was used.

The target of test [2] is T1, ERβ. Description: ERE-tk-Luc luciferase assay in U2OS cells with ERβ. The arrangement: expressed in transfected cells; host or cells: U2OS (human osteosarcoma). Format: cell-based. The note with it: competition with the extract, FIG. 6. On the procedure: as §1, §2
The conditions of test [3]: five years of therapy; cited from earlier work.
The conditions of test [4]: women at high risk for breast cancer; cited from earlier work.

T1 sequence (Q92731 whole entry): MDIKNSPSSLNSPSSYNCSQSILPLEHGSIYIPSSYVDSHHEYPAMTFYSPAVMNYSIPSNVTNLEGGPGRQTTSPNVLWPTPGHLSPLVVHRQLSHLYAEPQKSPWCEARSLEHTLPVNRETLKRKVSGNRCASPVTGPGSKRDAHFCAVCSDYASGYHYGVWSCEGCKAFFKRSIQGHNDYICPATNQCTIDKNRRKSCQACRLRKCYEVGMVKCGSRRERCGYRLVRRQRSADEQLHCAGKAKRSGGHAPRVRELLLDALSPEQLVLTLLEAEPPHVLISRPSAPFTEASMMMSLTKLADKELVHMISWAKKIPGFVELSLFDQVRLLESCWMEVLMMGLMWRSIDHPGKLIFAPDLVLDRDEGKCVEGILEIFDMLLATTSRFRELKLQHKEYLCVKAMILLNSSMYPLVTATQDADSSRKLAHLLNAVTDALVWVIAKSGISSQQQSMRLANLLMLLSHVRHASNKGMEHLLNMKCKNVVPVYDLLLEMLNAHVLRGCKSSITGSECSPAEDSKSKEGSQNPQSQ

Take `C[C@]12CC[C@@H]3c4ccc(O)cc4CC[C@H]3[C@@H]1CC[C@@H]2O` [E2, estradiol]: in the test on TNF-RE tkLuc (in the presence of ERα and ERβ), the “repression of TNF-α activation of TNF-RE tkLuc” value is reported as 60-80%. In addition, the “repression of TNF-α activation of TNF-RE” value on ERβ [1] came out at 100%.

Regarding `C[C@]12CC[C@@H]3c4ccc(O)cc4C[C@@H](CCCCCCCCC[S+]([O-])CCCC(F)(F)C(F)(F)F)[C@H]3[C@@H]1CC[C@@H]2O` (stereo partly shown) [ICI 182, 780], the “effect on the repression induced by E2” value in the test with TNF-RE tkLuc (TNF-RE tkLuc) is on record as “abolished the repression induced by E2”. Further, the “activation of TNF-RE tkLuc” value with TNF-RE tkLuc was 2 fold.

In the case of `O=C(c1ccc(OCCN2CCCCC2)cc1)c1c(-c2ccc(O)cc2)sc2cc(O)ccc12` [raloxifene], in the test on TNF-RE tkLuc (TNF-RE tkLuc), the “effect on the repression induced by E2” value is “abolished the repression induced by E2”. Further, the “activation of TNF-RE tkLuc” value in the test with TNF-RE tkLuc is 2 fold. In addition, on ERβ [2], the “effect on the extract's stimulation of the ERE with ERβ” value is “is inhibited”.

For `CC/C(=C(\c1ccccc1)c1ccc(OCCN(C)C)cc1)c1ccccc1` [tamoxifen], the “effect on the repression induced by E2” value with TNF-RE tkLuc (TNF-RE tkLuc) is recorded as “abolished the repression induced by E2”. The “activation of TNF-RE tkLuc” value in the test on TNF-RE tkLuc was 2 fold. In test [3], the “reduction of mortality from breast cancer” value was 22% and the “reduction of the risk of recurrences” value is given as 42%. In addition, the “reduction of the risk of primary invasive breast cancer” value in test [4] is reported as 49%.

Regarding TNF-α, in the test on TNF-RE tkLuc (TNF-RE tkLuc), the “activation of 3 copies of the TNF-RE (−125 to −82) upstream of the tk promoter” value is 5-10 fold.
